Measurements taken from patent publication US20240165112A1, “THERAPY FOR THE TREATMENT OF CANCER” (Bristol-Myers Squibb Company, priority 2022, published 2024).

Columns and labels:
[1] = test system: LXFA677 organoid, NSCLC (adenocarcinoma subtype); assay: 3D clonogenic assay in patient derived organoids; format: cell-based, human; conditions: for Combination activity 5 μM Compound 1 (cAUC % reduction): chemotherapy dose titration + 5 μM Compound 1 vs chemotherapy alone; for Combination activity 20 μM Compound 1 (cAUC % reduction): chemotherapy dose titration + 20 μM Compound 1 vs chemotherapy alone
Method: (§1) Five tumor cell lines (4T1.2, A549, EMT6, NCI-H460, and HT29) were treated with a range of paclitaxel or 5-FU concentrations in the presence of dimethlylsulfoxide (DMSO), 5 μM Compound 1, or 20 μM Compound 1. Cells were imaged 4 days after treatment and percent confluence was assessed by image quantification. EC50 values for cell confluence were used to assess chemotherapy potency. Eleven patient-derived tumor organoids (MAXFTN449, MAXFTN2990, PAXF1657, PAXF2131, CXF1256, CXF2129, CXF2061, LXFE2478, LXFE690, LXFA677, LXFA644) were seeded in a 3D matrix and treated with a range of paclitaxel, 5-FU, SN38, Gemcitabine, oxaliplatin, and carboplatin concentrations in the presence of DMSO, 5 μM Compound 1, or 20 μM Compound 1. After 8 to 13 days in culture, colonies were stained, imaged, and counted. A dose response curve was generated for chemotherapy alone or chemotherapy in combination with 5 or 20 μM Compound 1. Combination activity was defined as a percentage of the area under the chemotherapy dose response curve (cAUC) for Compound 1 combination groups compared to the cAUC of chemotherapy alone.
(§2) For combination experiments, working stock solutions of all compounds were prepared in DMSO at concentrations of 660-fold the highest test concentration used and stored at −20° C. Platin compounds were prepared freshly on each treatment day. On each day of an experiment, an aliquot of the working stock solutions was used and stored at room temperature prior to and during treatment. First, 1:2 dilutions of 660-fold concentrated working stocks were prepared in DMSO (in case of monotherapy controls), or equal amounts of the compound working stocks were mixed (in case of drug combinations). Then, different dilutions of these 330-fold concentrated solutions were prepared in DMSO to give an 8×2 matrix combination layout with conditions. The DMSO dilutions were further diluted […] into cell culture medium (IMDM, supplemented with 20% (v/v) fetal bovine serum, and 50 μg/mL gentamicin) in an intermediate dilution plate. Finally, 10 μL taken from the intermediate dilution plate were transferred to 140 μL of cells and medium per well of the final assay plate. Thus, the DMSO dilutions used for the mono- and the combination-treatment were diluted 1:660, and the DMSO concentration in the assay was […].
(§3) Tumors were passaged as subcutaneous xenografts in NMRI nu/nu mice. At a tumor volume of 400 to 1000 mm^3, tumor-bearing mice were euthanized, and tumors were collected under sterile conditions without delay. Tumors were mechanically disaggregated and subsequently incubated with an enzyme cocktail consisting of collagenase type IV (41 U/mL), DNase I (125 U/mL), hyaluronidase type III (100 U/mL), and dispase II (1 U/mL) in RPMI 1640 medium at 37° C. for 60 to 120 minutes. Cells were passed through sieves of 100 μm and 40 μm mesh size, and washed with RPMI 1640 medium. The percentage of viable cells was determined in a Neubauer-hemocytometer using trypan blue exclusion. Aliquots of the cells were frozen down and stored in liquid nitrogen vapor phase. On each day of an experiment, a frozen aliquot of tumor cells was thawed and used for preparation of assay plates.
(§4) The clonogenic assay was carried out in a 96 well plate format using ultra low attachment plates. For each test, plates were prepared as follows: each test well contained a layer of semi-solid medium with tumor cells (50 μL), and a second layer of medium supernatant with or without test compound (100 μL). The cell layer consisted of […] to 12.5×10^3 tumor cells per well, which were seeded in 50 μL/well cell culture medium (IMDM, supplemented with 20% (v/v) fetal bovine serum, 50 μg/mL gentamicin, and 0.4% (w/v) agar). After 24 hours, the soft-agar layer was covered with 90 μL of the same culture medium without agar, and 10 μL of control medium or test compound after serial dilution in DMSO for the duration of the experiment (continuous exposure, 100 μL drug overlay).

[2] = test system: LXFE2478 organoid, NSCLC (squamous subtype); assay: 3D clonogenic assay in patient derived organoids; format: cell-based, human; conditions: for Combination activity 5 μM Compound 1 (cAUC % reduction): chemotherapy dose titration + 5 μM Compound 1 vs chemotherapy alone; for Combination activity 20 μM Compound 1 (cAUC % reduction): chemotherapy dose titration + 20 μM Compound 1 vs chemotherapy alone
Method: as §1, §2, §3, §4

[3] = test system: LXFE690 organoid, NSCLC (squamous subtype); assay: 3D clonogenic assay in patient derived organoids; format: cell-based, human; conditions: for Combination activity 5 μM Compound 1 (cAUC % reduction): chemotherapy dose titration + 5 μM Compound 1 vs chemotherapy alone; for Combination activity 20 μM Compound 1 (cAUC % reduction): chemotherapy dose titration + 20 μM Compound 1 vs chemotherapy alone
Method: as §1, §2, §3, §4

[4] = test system: LXFA644 organoid, NSCLC (adenocarcinoma subtype); assay: 3D clonogenic assay in patient derived organoids; format: cell-based, human; conditions: for Combination activity 5 μM Compound 1 (cAUC % reduction): chemotherapy dose titration + 5 μM Compound 1 vs chemotherapy alone; for Combination activity 20 μM Compound 1 (cAUC % reduction): chemotherapy dose titration + 20 μM Compound 1 vs chemotherapy alone
Method: as §1, §2, §3, §4

HT29 cell line = assay: 2D cell line viability assay (cell confluence); format: cell-based; conditions: Homo sapiens, HT-29, 96 h, 4 days
From the text: (§5) FIGS. 4A-4E illustrate the effects of Compound 1 on the Potency of Paclitaxel in a 2D Cell Line Viability Assay. […] Data points indicate mean and Standard Deviation of 2 biological replicates. Graphs are representative of at least 2 independent experiments. […] Abbreviations: DMSO, dimethylsulfoxide.

NCI-H460 cell line = assay: 2D cell line viability assay (cell confluence); format: cell-based; conditions: Homo sapiens, NCI-H460, 96 h, 4 days
From the text: as §5

A549 cell line = assay: 2D cell line viability assay (cell confluence); format: cell-based; conditions: Homo sapiens, A549, 96 h, 4 days
From the text: as §5

[5] = test system: MAXFTN2990 organoid, breast cancer (triple negative); assay: 3D clonogenic assay in patient derived organoids; format: cell-based, human; conditions: for Combination activity 5 μM Compound 1 (cAUC % reduction): chemotherapy dose titration + 5 μM Compound 1 vs chemotherapy alone; for Combination activity 20 μM Compound 1 (cAUC % reduction): chemotherapy dose titration + 20 μM Compound 1 vs chemotherapy alone
Method: as §1, §2, §3, §4

[6] = test system: MAXFTN449 organoid, breast cancer (triple negative); assay: 3D clonogenic assay in patient derived organoids; format: cell-based, human; conditions: for Combination activity 5 μM Compound 1 (cAUC % reduction): chemotherapy dose titration + 5 μM Compound 1 vs chemotherapy alone; for Combination activity 20 μM Compound 1 (cAUC % reduction): chemotherapy dose titration + 20 μM Compound 1 vs chemotherapy alone
Method: as §1, §2, §3, §4

[7] = test system: PAXF2131 organoid, Pancreatic cancer; assay: 3D clonogenic assay in patient derived organoids; format: cell-based, human; conditions: for Combination activity 5 μM Compound 1 (cAUC % reduction): chemotherapy dose titration + 5 μM Compound 1 vs chemotherapy alone; for Combination activity 20 μM Compound 1 (cAUC % reduction): chemotherapy dose titration + 20 μM Compound 1 vs chemotherapy alone
Method: as §1, §2, §3, §4

[8] = test system: PAXF1657 organoid, pancreatic cancer; assay: 3D clonogenic assay in patient derived organoids; format: cell-based, human; conditions: for Combination activity 5 μM Compound 1 (cAUC % reduction): chemotherapy dose titration + 5 μM Compound 1 vs chemotherapy alone; for Combination activity 20 μM Compound 1 (cAUC % reduction): chemotherapy dose titration + 20 μM Compound 1 vs chemotherapy alone
Method: as §1, §2, §3, §4

4T1.2 cell line = assay: 2D cell line viability assay (cell confluence); format: cell-based, murine; conditions: Mus musculus, 4T1.2, 96 h
From the text: as §5

EMT6 cell line = assay: 2D cell line viability assay (cell confluence); format: cell-based, murine; conditions: Mus musculus, EMT6, 96 h, 4 days
From the text: as §5

[9] = test system: CXF2061 organoid, colon cancer; assay: 3D clonogenic assay in patient derived organoids; format: cell-based, human
Method: as §1, §2, §3, §4

[10] = test system: CXF2129 organoid, colon cancer; assay: 3D clonogenic assay in patient derived organoids; format: cell-based, human
Method: as §1, §2, §3, §4

[11] = test system: CXF1256 organoid, colon cancer; assay: 3D clonogenic assay in patient derived organoids; format: cell-based, human
Method: as §1, §2, §3, §4

[12] = test system: Five tumor cell lines (4T1.2, A549, EMT6, NCI-H460, and HT29)
Method: as §1

[13] = in the presence of 5 μM Compound 1
[14] = in the presence of 20 μM Compound 1
[15] = 4 days after treatment, in the absence of Compound 1
[16] = 4 days, in the presence of 5 μM Compound 1
[17] = 4 days, in the presence of 20 μM Compound 1
[18] = chemotherapy dose titration + 5 μM Compound 1 vs chemotherapy alone
[19] = chemotherapy dose titration + 20 μM Compound 1 vs chemotherapy alone

SMILES	Combination activity 5 μM Compound 1 (cAUC % reduction) [1] [%]	Combination activity 20 μM Compound 1 (cAUC % reduction) [1] [%]	Combination activity 5 μM Compound 1 (cAUC % reduction) [2] [%]	Combination activity 20 μM Compound 1 (cAUC % reduction) [2] [%]	Combination activity 5 μM Compound 1 (cAUC % reduction) [3] [%]	Combination activity 20 μM Compound 1 (cAUC % reduction) [3] [%]	Combination activity 5 μM Compound 1 (cAUC % reduction) [4] [%]	Combination activity 20 μM Compound 1 (cAUC % reduction) [4] [%]	EC50 (HT29 cell line; in the absence of Compound 1) [nM]	EC50 (HT29 cell line; [13]) [nM]	EC50 (HT29 cell line; [14]) [nM]	EC50 (NCI-H460 cell line; in the absence of Compound 1) [nM]	EC50 (NCI-H460 cell line; [13]) [nM]	EC50 (NCI-H460 cell line; [14]) [nM]	EC50 (A549 cell line; in the absence of Compound 1) [nM]	EC50 (A549 cell line; [13]) [nM]	EC50 (A549 cell line; [14]) [nM]	Combination activity 5 μM Compound 1 (cAUC % reduction) [5] [%]	Combination activity 20 μM Compound 1 (cAUC % reduction) [5] [%]	Combination activity 5 μM Compound 1 (cAUC % reduction) [6] [%]	also measured
Nc1ccn([C@@H]2O[C@H](CO)[C@@H](O)C2(F)F)c(=O)n1 [Gemcitabine, gemcitabine]	7	15	41	30	59	61	3	20													Combination activity 5 μM Compound 1 (cAUC % reduction) ([2]; listed as gemcitabine): 41%
CC(=O)O[C@H]1C(=O)[C@@]2(C)[C@H]([C@H](OC(=O)c3ccccc3)[C@]3(O)C[C@H](OC(=O)[C@H](O)[C@@H](NC(=O)c4ccccc4)c4ccccc4)C(C)=C1C3(C)C)[C@]1(OC(C)=O)CO[C@@H]1C[C@@H]2O (relative stereo) [Paclitaxel, (1S,2S,3R,4S,7R,9S,10S,12R,15S)-4,12-diacetoxy-15-{[(2R,3S)-3-(benzoylamino)-2-hydroxy-3-phenylpropanoyl]oxy}-1,9-dihydroxy-10,14,17,17-tetramethyl-11-oxo-6-oxatetracyclo[11.3.1.0˜3,10˜0.0˜4,7˜]heptadec-13-en-2-yl rel-benzoate]			46	45	87	94			1.8	1.9	1.8	6.5	2.9	2.3	1.6	1.6	1	63	77	57	Combination activity 20 μM Compound 1 (cAUC % reduction) ([5]; listed as paclitaxel): 77%; Combination activity 20 μM Compound 1 (cAUC % reduction) [6]: 42%; Combination activity 20 μM Compound 1 (cAUC % reduction) ([6]; listed as paclitaxel): 42%; Combination activity 5 μM Compound 1 (cAUC % reduction) [7]: 58%; Combination activity 20 μM Compound 1 (cAUC % reduction) [7]: 71%; Combination activity 20 μM Compound 1 (cAUC % reduction) ([7]; listed as paclitaxel): 71%; Combination activity 20 μM Compound 1 (cAUC % reduction) ([2]; listed as paclitaxel): 45%; Combination activity 20 μM Compound 1 (cAUC % reduction) ([3]; listed as paclitaxel): 94%; Combination activity 5 μM Compound 1 (cAUC % reduction) [8]: 50%; Combination activity 20 μM Compound 1 (cAUC % reduction) [8]: 64%; Combination activity 20 μM Compound 1 (cAUC % reduction) ([8]; listed as paclitaxel): 64%; EC50 (4T1.2 cell line; [15]): 48 nM; EC50 (4T1.2 cell line; [16]): 16 nM; EC50 (4T1.2 cell line; [17]): 3.4 nM; EC50 (EMT6 cell line; in the absence of Compound 1): 19 nM; EC50 (EMT6 cell line; [13]): 5.5 nM; EC50 (EMT6 cell line; [14]): 1.9 nM
O=c1[nH]cc(F)c(=O)[nH]1 [Compound 5-FU, 5-Fluorouracil]									2500	2500	1600	2600	1600	1700	2400	2600	1500	−25	8	29	Combination activity 5 μM Compound 1 (cAUC % reduction) [9, 18]: 25%; Combination activity 20 μM Compound 1 (cAUC % reduction) [9, 19]: 18%; Combination activity 20 μM Compound 1 (cAUC % reduction) [6]: 14%; Combination activity 5 μM Compound 1 (cAUC % reduction) [10, 18]: 42%; Combination activity 20 μM Compound 1 (cAUC % reduction) [10, 19]: 31%; Combination activity 5 μM Compound 1 (cAUC % reduction) [7]: 52%; Combination activity 20 μM Compound 1 (cAUC % reduction) [7]: 67%; Combination activity 5 μM Compound 1 (cAUC % reduction) [11, 18]: 78%; Combination activity 20 μM Compound 1 (cAUC % reduction) [11, 19]: 79%; Combination activity 5 μM Compound 1 (cAUC % reduction) [8]: 32%; Combination activity 20 μM Compound 1 (cAUC % reduction) [8]: 32%; potency of 5-FU in the presence of Compound 1 relative to 5-FU potency in the absence of Compound 1 [12]: ≤ 2 fold; EC50 (4T1.2 cell line; [15]): 570 nM; EC50 (4T1.2 cell line; [16]): 500 nM; EC50 (4T1.2 cell line; [17]): 490 nM; EC50 (EMT6 cell line; in the absence of Compound 1): 2700 nM; EC50 (EMT6 cell line; [13]): 2500 nM; EC50 (EMT6 cell line; [14]): 2600 nM
N.N.O=C([O-])C1(C(=O)[O-])CCC1.[Pt+2] [Carboplatin, carboplatin]	7	14	27	3	73	80	5	19													Combination activity 5 μM Compound 1 (cAUC % reduction) ([4]; listed as carboplatin): 50%
